Assay results published in ChEMBL document CHEMBL1201862, “PubChem BioAssay data set” (2004).
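Protocol summary: plate cells (96-well), add compound at 5 concentrations, incubate 48 h, interpolate endpoints linearly. At the GI50, growth is halved.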 Active and inactive are the calls of the source. Cut-off read from the data, not from the text of the source: active = GI50 up to about 1.1 µM and inactive = higher.

Assays:
Assay in all cases: DTP human tumour cell line panel, 48 h
[1] = tested on: HOP-92
[2] = tested on: SR
[3] = tested on: RXF 393
[4] = tested on: MOLT-4
[5] = tested on: CCRF-CEM
[6] = tested on: SK-MEL-5
[7] = tested on: K562
[8] = tested on: M19-MEL
[9] = tested on: EKVX
[10] = tested on: HOP-62
[11] = tested on: HCC 2998
[12] = tested on: HT-29
[13] = tested on: COLO 205
[14] = tested on: NCI-H23
[15] = tested on: SF-268
[16] = tested on: A498
[17] = tested on: HCT-15
[18] = tested on: MCF7
[19] = tested on: BT-549
[20] = tested on: PC-3

| SMILES | GI50 [1] | GI50 [2] | GI50 [3] | GI50 [4] | GI50 [5] | GI50 [6] | GI50 [7] | GI50 [8] | GI50 [9] | GI50 [10] | GI50 [11] | GI50 [12] | GI50 [13] | GI50 [14] | GI50 [15] | GI50 [16] | GI50 [17] [µM] | GI50 [18] | GI50 [19] | GI50 [20] |
| --- | --- | --- | --- | --- | --- | --- | --- | --- | --- | --- | --- | --- | --- | --- | --- | --- | --- | --- | --- | --- |
| Nc1nc(SCCC/C=C/I)nc2c1ncn2C1OC(COP(=O)(O)O)C(O)C1O (centres undefined) | > 100 µM (inactive) | > 100 µM (inactive) | > 100 µM (inactive) | > 100 µM (inactive) | > 100 µM (inactive) | > 100 µM (inactive) | > 100 µM (inactive) | > 100 µM (inactive) | > 100 µM (inactive) | > 100 µM (inactive) | > 100 µM (inactive) | > 100 µM (inactive) | > 100 µM (inactive) | > 100 µM (inactive) | > 100 µM (inactive) | > 100 µM (inactive) | > 100 |  |  |  |
| CCCCCOc1ccc(/C=N\c2ccc(CCc3ccc(/N=C/c4ccc(OCCCCC)cc4)cc3)cc2)cc1 | > 100 µM (inactive) |  | > 100 µM (inactive) | > 100 µM (inactive) | > 100 µM (inactive) | > 100 µM (inactive) | > 100 µM (inactive) | > 100 µM (inactive) | > 100 µM (inactive) | > 100 µM (inactive) | > 100 µM (inactive) | > 100 µM (inactive) | > 100 µM (inactive) | > 100 µM (inactive) | > 100 µM (inactive) | > 100 µM (inactive) | > 100 | > 100 µM (inactive) |  |  |
| Cn1c(=O)c2nc(NCCO)cnc2n(C)c1=O | > 100 µM (inactive) | 42.8 µM (inactive) | 35.6 µM (inactive) | > 100 µM (inactive) | > 100 µM (inactive) | > 100 µM (inactive) | 44.2 µM (inactive) | 56.5 µM (inactive) | > 100 µM (inactive) | 71.1 µM (inactive) | 64.6 µM (inactive) | > 100 µM (inactive) | > 100 µM (inactive) | > 100 µM (inactive) | > 100 µM (inactive) | > 100 µM (inactive) | 85.9 |  |  |  |
| CC1=NOC(=O)/C1=C/c1cccc2ccccc12 | > 100 µM (inactive) | > 100 µM (inactive) | > 100 µM (inactive) | > 100 µM (inactive) | > 100 µM (inactive) | > 100 µM (inactive) | > 100 µM (inactive) | > 100 µM (inactive) | > 100 µM (inactive) | > 100 µM (inactive) | > 100 µM (inactive) | > 100 µM (inactive) | > 100 µM (inactive) | > 100 µM (inactive) | > 100 µM (inactive) | > 100 µM (inactive) | > 100 |  |  |  |
| Cn1ccnc1C(c1nccn1C)C(C)(C)[N+](=O)[O-] | > 100 µM (inactive) | > 100 µM (inactive) | > 100 µM (inactive) | > 100 µM (inactive) | > 100 µM (inactive) | > 100 µM (inactive) | > 100 µM (inactive) | > 100 µM (inactive) | > 100 µM (inactive) | > 100 µM (inactive) | > 100 µM (inactive) |  | > 100 µM (inactive) |  | > 100 µM (inactive) | > 100 µM (inactive) | > 100 |  |  |  |
| O=C1c2ccccc2C(=O)N1CC#CCO |  | > 100 µM (inactive) | > 100 µM (inactive) | > 100 µM (inactive) | > 100 µM (inactive) | > 100 µM (inactive) | > 100 µM (inactive) | > 100 µM (inactive) | > 100 µM (inactive) | > 100 µM (inactive) |  | > 100 µM (inactive) |  | > 100 µM (inactive) | > 100 µM (inactive) | > 100 µM (inactive) | > 100 |  |  |  |
| CC1(C)O[C@@H](CCl)C[C@H](C#N)O1 | > 100 µM (inactive) | > 100 µM (inactive) | > 100 µM (inactive) | > 100 µM (inactive) | > 100 µM (inactive) | > 100 µM (inactive) | > 100 µM (inactive) | > 100 µM (inactive) | > 100 µM (inactive) | > 100 µM (inactive) | > 100 µM (inactive) | > 100 µM (inactive) | > 100 µM (inactive) | > 100 µM (inactive) | > 100 µM (inactive) | > 100 µM (inactive) | > 100 |  |  |  |
| Cn1ncc2c(Nc3ccc(Cl)cc3)c3ccccc3nc21 | 17.6 µM (inactive) | 14.9 µM (inactive) |  | 11.4 µM (inactive) | 17.9 µM (inactive) | 13.6 µM (inactive) | 16.2 µM (inactive) | 19.3 µM (inactive) | > 10 µM (inactive) | 16.4 µM (inactive) | 22.9 µM (inactive) | 13.5 µM (inactive) | 19.7 µM (inactive) | > 10 µM (inactive) | 20.3 µM (inactive) | 14.8 µM (inactive) | 15.7 |  |  |  |
| COc1cc(OC)c(Oc2cccc(OC)c2OC)c(OC)c1 | > 100 µM (inactive) | > 100 µM (inactive) |  | > 100 µM (inactive) | > 100 µM (inactive) | > 100 µM (inactive) | > 100 µM (inactive) | > 100 µM (inactive) | > 100 µM (inactive) | > 100 µM (inactive) | > 100 µM (inactive) | > 100 µM (inactive) | > 100 µM (inactive) | > 100 µM (inactive) | > 100 µM (inactive) | > 100 µM (inactive) |  |  |  |  |
| CN(CCO)/N=N/c1[nH]cnc1C(N)=O | 77.8 µM (inactive) | 39.7 µM (inactive) | > 100 µM (inactive) | > 100 µM (inactive) | 21.5 µM (inactive) | > 100 µM (inactive) |  | > 100 µM (inactive) | > 100 µM (inactive) | 74 µM (inactive) | > 100 µM (inactive) | > 100 µM (inactive) | > 100 µM (inactive) | > 100 µM (inactive) | 84.1 µM (inactive) | > 100 µM (inactive) | > 100 |  |  |  |
| CCN(CC)CCC(=O)NC1c2ccccc2Oc2c(C)cccc21 (centres undefined) |  | > 100 µM (inactive) | > 100 µM (inactive) | > 100 µM (inactive) | > 100 µM (inactive) | > 100 µM (inactive) | > 100 µM (inactive) | > 100 µM (inactive) | > 100 µM (inactive) | > 100 µM (inactive) | > 100 µM (inactive) | > 100 µM (inactive) | > 100 µM (inactive) | > 100 µM (inactive) | > 100 µM (inactive) |  | > 100 |  |  |  |
| CN(C)CCNC(=O)c1cccc2c(=O)c3ccccc3oc12 | 20.1 µM (inactive) |  | 43.1 µM (inactive) | 41.3 µM (inactive) | 35.4 µM (inactive) | 25.2 µM (inactive) | 40.8 µM (inactive) | 22.9 µM (inactive) | > 66.1 µM (inactive) | 38.5 µM (inactive) | 60 µM (inactive) | 25.4 µM (inactive) | 13.1 µM (inactive) | 35.3 µM (inactive) | 45.2 µM (inactive) | 21.1 µM (inactive) | 37.4 | 26.7 µM (inactive) |  |  |
| CCN(CC)CC1CCCCN1CC(=O)N1c2cc(Cl)ccc2NC(=O)CC1C (centres undefined) | > 100 µM (inactive) | > 100 µM (inactive) |  | > 100 µM (inactive) | > 100 µM (inactive) | > 100 µM (inactive) | > 100 µM (inactive) | > 100 µM (inactive) | > 100 µM (inactive) | > 100 µM (inactive) | > 100 µM (inactive) |  | > 100 µM (inactive) | > 100 µM (inactive) | > 100 µM (inactive) | > 100 µM (inactive) | > 10 |  |  |  |
| CC(C)=CC(=O)CC(=O)C(=O)Nc1ccc(Cl)c(Cl)c1 |  | > 100 µM (inactive) | > 100 µM (inactive) | > 100 µM (inactive) | > 100 µM (inactive) |  | > 100 µM (inactive) | > 100 µM (inactive) | > 100 µM (inactive) | > 100 µM (inactive) | > 100 µM (inactive) | > 100 µM (inactive) | > 100 µM (inactive) | > 100 µM (inactive) | > 100 µM (inactive) | > 100 µM (inactive) | > 100 |  |  |  |
| Cc1ccc(-c2nnc(SCC(=O)O)[nH]2)cc1 | > 100 µM (inactive) | > 100 µM (inactive) |  | > 100 µM (inactive) | > 100 µM (inactive) | > 100 µM (inactive) | > 100 µM (inactive) | > 100 µM (inactive) | > 100 µM (inactive) | > 100 µM (inactive) | > 100 µM (inactive) | > 100 µM (inactive) | > 100 µM (inactive) | > 100 µM (inactive) | > 100 µM (inactive) | > 100 µM (inactive) | > 100 |  |  |  |
| C#Cc1cccc(N2C(=O)CCC2=O)c1 |  | 1.74 µM (inactive) |  | 2.77 µM (inactive) | 1.56 µM (inactive) | 20.5 µM (inactive) | 2.65 µM (inactive) | 19.5 µM (inactive) | 18.3 µM (inactive) | > 10 µM (inactive) | 15 µM (inactive) | 12.1 µM (inactive) | 6.73 µM (inactive) | 14.7 µM (inactive) | 17.7 µM (inactive) | 15.6 µM (inactive) | 22.1 | 19.4 µM (inactive) | > 10 µM (inactive) | 15.2 µM (inactive) |
| COc1cc(C2c3cc4c(cc3[C@@H](Nc3ccccc3)C3COC(=O)[C@H]23)OCO4)cc(OC)c1O (some centres undefined) | 0.857 µM (active) |  | 1.73 µM (inactive) | < 0.01 µM (active) | 0.0279 µM (active) | 0.787 µM (active) | 0.931 µM (active) | 1.55 µM (inactive) | 1.96 µM (inactive) | 0.155 µM (active) | 1.23 µM (inactive) | 1.23 µM (inactive) | 1.92 µM (inactive) | 0.238 µM (active) | 1.04 µM (active) | 0.221 µM (active) | 0.417 | 0.0715 µM (active) |  |  |
